EC50 data for 1 compound are collected here from patent US9452977B2, “Cyclopentylacrylamide derivative” (KYORIN PHARMACEUTICAL CO., LTD., priority 2008, dated 2016).

The assay concerns the target T1, human hepatic GK (Homo sapiens, UniProt P35557).
T1 construct: His6 (C); made in house; host or cells: E. coli
T1 sequence (P35557 1-466 isoform P35557-2): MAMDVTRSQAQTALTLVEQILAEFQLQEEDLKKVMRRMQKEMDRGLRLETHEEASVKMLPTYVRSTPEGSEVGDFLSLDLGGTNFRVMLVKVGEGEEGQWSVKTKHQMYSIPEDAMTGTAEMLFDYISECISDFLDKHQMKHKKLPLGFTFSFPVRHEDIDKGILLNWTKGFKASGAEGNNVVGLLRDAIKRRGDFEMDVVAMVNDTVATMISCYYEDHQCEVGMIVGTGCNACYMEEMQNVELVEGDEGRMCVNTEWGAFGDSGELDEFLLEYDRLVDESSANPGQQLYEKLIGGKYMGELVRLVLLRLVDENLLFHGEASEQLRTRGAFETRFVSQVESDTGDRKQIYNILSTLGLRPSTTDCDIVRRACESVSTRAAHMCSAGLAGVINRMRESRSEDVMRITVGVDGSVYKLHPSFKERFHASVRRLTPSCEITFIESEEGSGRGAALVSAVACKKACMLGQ
Briefly: GK activity measurement (G6PDH-coupled NADH production). As to conditions: GK activation; 5 mM D-glucose. The assay is classed as biochemical. The procedure:
The GK activity was determined not by direct measurement of the amount of glucose-6-phosphate produced by the enzyme reaction but by measurement of the amount of NADH produced by a […] reaction.
(Preparation of Recombinant GK)
Cloning of Human Hepatic GK and Human Pancreas GK and Acquisition of Recombinant Proteins
Based on a human hepatic GK sequence available from GeneBank (Accession Number: NM_033507) and a human pancreas GK sequence (Accession Number: NM_000162), PCR cloning was performed using Pyrobest DNA Polymerase (product of Takara Bio Inc.) with human hepatic cDNA (product of Clontech Laboratories, Inc.) and human pancreas cDNA (product of Clontech Laboratories, Inc.) used as templates. […]
The test compound was dissolved in DMSO in advance, and 2 μL of the prepared solution was added to 20 μL of a solution containing the HEPES buffer solution (pH 7.1), KCl, MgCl2, D-glucose, ATP, NAD, and dithiothreitol. […] The GK was added such that an increase in absorbance per minute in the presence of 5% DMSO was between 0.002 to 0.003. After the reaction was initiated, the increase in absorbance at 340 nm was measured for 15 minutes using a SPECTRAmax 190 microplate spectrophotometer (product of Molecular Devices Corporation), and the activity was evaluated using the increase in the first 10 minutes.

In general, EC50 refers to the concentration needed to bring the measured effect to its halfway point. A higher EC50 goes with a need for much substance. Compound `CS(=O)(=O)c1ccc(/C(=C\[C@H]2C[C@@H](F)[C@@H](F)C2)C(=O)Nc2nccs2)cc1` [Compound 1A, (E)-3-[(1α,3α,4α)-3,4-difluorocyclopentyl]-2-[4-(methylsulfonyl)phenyl]-N-(thiazol-2-yl)acrylamide] returned a concentration for a half-maximal effect (EC50) not above 1000 nM.
